This is an account of results in BindingDB's records for doi:10.1016/j.chembiol.2012.04.012 (Albert Einstein College of Medicine, 2012).

This experiment concerns the target T1, Hypoxanthine-guanine-xanthine phosphoribosyltransferase (Plasmodium falciparum (isolate FCR-3 / Gambia), UniProt P20035).
T1 sequence (P20035 whole entry): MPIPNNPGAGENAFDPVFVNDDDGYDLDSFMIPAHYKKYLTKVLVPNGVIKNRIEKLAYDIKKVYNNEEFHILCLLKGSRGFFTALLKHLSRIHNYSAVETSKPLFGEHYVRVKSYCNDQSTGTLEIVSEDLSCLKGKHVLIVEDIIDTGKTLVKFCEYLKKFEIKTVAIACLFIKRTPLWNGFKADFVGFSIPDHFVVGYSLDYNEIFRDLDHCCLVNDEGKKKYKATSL
The experiment can be described thus: Inhbition Assay. The conditions noted are these: pH 7.6; 37 °C. On the procedure: PfHGXPRT activity was measured using spectrophotometric assay observing the conversion of xanthine and 5-phospho-alpha-D-ribose-1-pyrophosphate to xanthosine-5'-monophosphate and inorganic pyrophosphate (PPi) at 247nm or the conversion of guanine and PRPP to guanosine-5'-monophosphate and PPi on a Varian Cary 100 spectrophotometer.

Consider `O=c1[nH]cnc2c(N[C@H](CO)CCP(=O)(O)O)c[nH]c12` [HGXPRT Inhibitor, 3], for which the Ki came out at 0.65 nM.

The compound `O=c1[nH]cnc2c(NCCCP(=O)(O)O)c[nH]c12` [HGXPRT Inhibitor, 2] gave an inhibitory constant (Ki) of 10.6 nM. This Ki lies about 16-fold higher than the previous one.

As a reminder, the Ki is a measure of affinity in units of concentration, obtained from inhibition or displacement.
